Values of other authors in US8263663B2, “Azide functionalized peptide targeting groups” (Intezyne Technologies, Inc., priority 2005, dated 2012).

Conditions: at similar concentrations (to 225 μg/mL)

SMILES: COc1cccc2c1C(=O)c1c(O)c3c(c(O)c1C2=O)C[C@@](O)(C(=O)CO)C[C@@H]3O[C@H]1C[C@H](N)[C@H](O)[C@H](C)O1 [DOX, doxorubicin]
- hemolysis: > 10%
